Test system: selectively-bred alcohol preferring rats
Test: Alcohol Preferring Rats In Vivo Model (two-bottle choice)
Set-up: species or system rat
Conditions: for 6 hr Preference (alcohol preference) / 6 hr Ethanol (alcohol intake) / 24 hr Ethanol (alcohol intake) / 24 hr Preference (alcohol preference): mean ± SEM; for 6 hr Ethanol (alcohol intake): 6 h after treatment
Method: Adult male selectively-bred alcohol preferring rats (which are known in the art to be useful for the study of the effect of test compounds on voluntary alcohol intake) were grouped into three groups: vehicle and Compound #1 (50 and 100 mg/kg, p.o.). Rats were housed individually in wire mesh cages under a constant room temperature of 22±1° C. and 12:12 light-dark cycle (8:00-20:00, dark). The animals were fed Agway Prolab Rat/Mouse/Hamster 3000 formula and water ad libitum.
Alcohol intake was determined using the standard two-bottle choice method. Animals were first given free access to water in a graduated Richter tube for 2 days. Then they were given access to only a solution of 10% (v/v) ethanol for 3 consecutive days. During this period animals became accustomed to drinking from Richter tubes and to the taste and pharmacological effects of alcohol. Thereafter, they were given free access to both water and a solution of 10% alcohol for at least 4 consecutive weeks and throughout the study period. Rats had free access to food. Water and alcohol intake were recorded at 4, 6 and 24 hours after the treatment, whereas food intake was measured at 24 hour. Animals' body weight was measured every day.
After establishment of a stable baseline for alcohol, food, and water intake, rats were administered either vehicle or Compound #1 via oral gavage using a cross-over design with random assignment. To be able to compare the efficacy of these compounds on alcohol intake with an established FDA-approved drug, naltrexone, was included as a positive control. Same rats were given an oral dose of naltrexone (20 mg/kg). The interval between treatments was at least 3 days. Alcohol and water intake were recorded 4, 6 and 24 h after the drug administration and food intake was recorded at 24 hr. A total of 8-10 animals per group were used.
The results below are presented as means±SEM. Alcohol intake (g/kg) was calculated by multiplying the volume of alcohol consumed in ml by 10% and 0.7893 (ethanol density)/body weight in kg. Alcohol preference, expressed as percentage, was calculated as follows: (volume of alcohol consumed in ml/total fluid intake in ml)×100 (Rezvani and Grady, 1994; Rezvani et al., 1997). Statistical differences between drug-treated and control groups were determined by using ANOVA and Tukey Student's t test for multiple comparison.

| SMILES | 6 hr Preference (alcohol preference) (50 mg/kg p.o.) | 6 hr Ethanol (alcohol intake) (50 mg/kg p.o.) | 24 hr Ethanol (alcohol intake) (50 mg/kg p.o.) | 24 hr Preference (alcohol preference) (50 mg/kg p.o.) | 6 hr Preference (alcohol preference) (100 mg/kg p.o.) | 6 hr Ethanol (alcohol intake) (100 mg/kg p.o.) | 24 hr Ethanol (alcohol intake) (100 mg/kg p.o.) | 24 hr Preference (alcohol preference) (100 mg/kg p.o.) | duration of reduction in ethanol consumption compared with naltrexone (in words) (100 mg/kg vs naltrexone 20 mg/kg) | effect on ethanol consumption (in words) (at 6 h (50 and 100 mg/kg; p<0.05) and 24 h (100 mg/kg; p<0.05) post-dosing) | 6 hr Preference (alcohol preference) (naltrexone 20 mg/kg oral) | 6 hr Ethanol (alcohol intake) (naltrexone 20 mg/kg oral) | 24 hr Ethanol (alcohol intake) (naltrexone 20 mg/kg oral) | 24 hr Preference (alcohol preference) (naltrexone 20 mg/kg oral) |
| --- | --- | --- | --- | --- | --- | --- | --- | --- | --- | --- | --- | --- | --- | --- |
| NS(=O)(=O)NCc1csc2ccccc12 [Compound #1, N-(benzo[b]thien-3-ylmethyl)-sulfamide] | 71 ± 11% | 1.06 ± 0.25 g/kg | 4.48 ± 0.62 g/kg | 74 ± 9% | 67 ± 11% | 0.79 ± 0.24 g/kg | 4.08 ± 0.71 g/kg | 79 ± 9% | longer lasting than naltrexone | decreased ethanol consumption |  |  |  |  |
| O=C1CC[C@@]2(O)[C@H]3Cc4ccc(O)c5c4[C@@]2(CCN3CC2CC2)[C@H]1O5 [Naltrexone, naltrexone, reference compound] |  |  |  |  |  |  |  |  |  |  | 64 ± 12% | 0.77 ± 0.24 g/kg | 4.48 ± 0.57 g/kg | 76 ± 9% |

From patent US20070191453A1, “USE OF BENZO-HETEROARYL SULFAMIDE DERIVATIVES FOR THE TREATMENT OF SUBSTANCE ABUSE AND ADDICTION” (priority 2006, published 2007)
